Like-named read-outs stand apart in the source and are kept apart here.
Key:
[1] = biological target: T1, human concentrative nucleoside transporter 3 (hCNT3) (Homo sapiens, UniProt Q9HAS3); experiment: cold competition of [3H]-ribavirin uptake in oocytes; format: cell-based
T1 sequence (Q9HAS3 1-691): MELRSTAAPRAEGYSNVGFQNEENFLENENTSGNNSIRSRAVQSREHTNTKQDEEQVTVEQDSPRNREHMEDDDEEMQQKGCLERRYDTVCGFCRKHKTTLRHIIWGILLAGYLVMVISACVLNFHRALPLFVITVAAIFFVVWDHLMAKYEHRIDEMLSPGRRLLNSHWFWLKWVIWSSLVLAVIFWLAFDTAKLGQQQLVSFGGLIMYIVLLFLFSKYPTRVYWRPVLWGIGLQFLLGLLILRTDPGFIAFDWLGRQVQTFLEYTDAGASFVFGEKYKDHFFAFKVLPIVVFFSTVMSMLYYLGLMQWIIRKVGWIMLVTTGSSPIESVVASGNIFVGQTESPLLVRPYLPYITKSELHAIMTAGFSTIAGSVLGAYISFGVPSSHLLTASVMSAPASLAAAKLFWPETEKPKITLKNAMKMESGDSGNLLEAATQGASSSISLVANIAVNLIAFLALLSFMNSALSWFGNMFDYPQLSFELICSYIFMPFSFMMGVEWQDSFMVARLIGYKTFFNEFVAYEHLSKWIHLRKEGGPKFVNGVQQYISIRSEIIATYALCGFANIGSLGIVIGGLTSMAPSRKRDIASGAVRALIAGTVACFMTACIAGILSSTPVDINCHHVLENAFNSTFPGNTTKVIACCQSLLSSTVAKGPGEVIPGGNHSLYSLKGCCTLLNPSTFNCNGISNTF

[2] = biological target: T1, human concentrative nucleoside transporter 3 (hCNT3); experiment: as above; format: cell-based; remark: listed apart in the source
[3] = biological target: T2, bovine CNT3 (bCNT3) (Bos taurus, UniProt F1MGR1); experiment: cryo-EM structure; format: binding
T2 sequence (F1MGR1 1-699): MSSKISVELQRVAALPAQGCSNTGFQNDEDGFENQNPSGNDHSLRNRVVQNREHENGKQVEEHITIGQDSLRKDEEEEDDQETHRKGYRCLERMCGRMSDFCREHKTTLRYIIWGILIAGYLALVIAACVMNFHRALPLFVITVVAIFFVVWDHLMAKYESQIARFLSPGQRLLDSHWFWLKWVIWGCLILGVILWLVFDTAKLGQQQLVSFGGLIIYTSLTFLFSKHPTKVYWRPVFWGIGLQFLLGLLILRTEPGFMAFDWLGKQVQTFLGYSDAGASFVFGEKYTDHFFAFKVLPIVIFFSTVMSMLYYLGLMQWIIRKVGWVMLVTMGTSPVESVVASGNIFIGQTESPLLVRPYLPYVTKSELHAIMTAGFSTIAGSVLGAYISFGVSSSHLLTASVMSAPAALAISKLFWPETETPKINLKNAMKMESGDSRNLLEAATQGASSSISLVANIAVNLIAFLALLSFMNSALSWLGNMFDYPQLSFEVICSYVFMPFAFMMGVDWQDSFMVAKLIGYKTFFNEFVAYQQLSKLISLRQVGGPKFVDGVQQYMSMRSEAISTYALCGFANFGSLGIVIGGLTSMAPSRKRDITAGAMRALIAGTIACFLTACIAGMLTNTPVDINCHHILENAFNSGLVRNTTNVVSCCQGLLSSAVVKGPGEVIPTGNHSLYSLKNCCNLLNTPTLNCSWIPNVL

[4] = biological target: T1, human concentrative nucleoside transporter 3 (hCNT3); experiment: cold competition of [3H]-ribavirin uptake in oocytes; format: cell-based; remark: listed apart in the source
[5] = biological target: T2, bovine CNT3 (bCNT3); experiment: cryo-EM structure; format: binding; remark: listed apart in the source
[6] = biological target: the molecule itself; experiment: cryo-EM structure

**Q.** For `N#C[C@@]1(c2ccc3c(N)ncnn23)O[C@H](CO)[C@@H](O)[C@H]1O` [GS4, GS-441524], which IC50 [1] is on record?
**A.** ~400 µM

**Q.** For `CC(C)C(=O)OC[C@H]1O[C@@H](n2ccc(NO)nc2=O)[C@H](O)[C@@H]1O` [MPV, molnupiravir], which IC50 [2] is on record?
**A.** ~54 µM

**Q.** Which “cryo-EM structure (2.74 Å), inward-facing state” value [3] does the source give for `O=c1nc(NO)ccn1[C@@H]1O[C@H](CO)[C@@H](O)[C@H]1O` [NHC, N^4-hydroxycytidine] here?
**A.** This substituent interacts with S380 in the bCNT3-NHC structure

**Q.** And the IC50 [4]?
**A.** ~13 µM

**Q.** For `C[C@@]1(F)[C@H](O)[C@@H](CO)O[C@H]1n1ccc(=O)[nH]c1=O` [PSI-6206], which “cryo-EM structure (2.69 Å), inward-facing state” value [5] is on record?
**A.** The quality of the maps enabled unambiguous modeling of nucleoside drugs for NHC, PSI-6206, and ribavirin

B1: Bos taurus concentrative nucleoside transporter 3 (CNT3) (natural protein, UniProt F1MGR1 1-699, looked up)
chain: T2 sequence (F1MGR1 1-699)
**Q.** B1 was tested. Which “stoichiometry N” value [6] did it give?
**A.** 3
